Test system: blackgrass
Assay: Test Example 5: herbicidal effect by foliage application, plastic box (Table 20, symbol J)
Type: in vivo, blackgrass (Alopecurus myosuroides)
Settings: foliage application, AAH 320 g/ha, evaluated three weeks after application
Procedure, shortened: (§1)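 Plants sown in sterilized diluvial soil and grown 14 days in a greenhouse at 25° C to 30° C, then sprayed on the foliage with the compound's emulsion diluted in water to a predetermined herbicide amount. Injury to weeds and crops scored three weeks after application on a visual rating scale.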

Compound | J: blackgrass, herbicidal effect (criteria 0-5)
Cc1nn(C)c(=O)c(-c2c(-c3ccc(OC(F)F)cc3)sc3ccc(F)cc23)c1OC(=O)OCCCl [2-293] | 5 (Herbicidal rate of 90% or more (almost completely withered))
Cc1nn(C)c(=O)c(-c2c(-c3ccc(OC(F)F)cc3)sc3ccc(F)cc23)c1OCC(=O)c1ccccc1 [2-305] | 0 (Herbicidal rate of 5% or less (almost no effect))

Test system: Japanese bulrush
Assay: Test Example 1: herbicidal activity, application before weed generation under submerged conditions (Table 16, symbol B)
Type: in vivo, Japanese bulrush (Schoenoplectus juncoides)
Settings: 320 g/ha applied herbicide
Procedure, shortened: (§2)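 Alluvial soil was flooded to 4 cm depth, weed seeds were sown mixed and 2.5-leaf rice seedlings were transplanted. On sowing day, the compound's emulsion, diluted in water to a set dose, was applied to the water surface. Plants grew at 25–30 °C and were scored 0–5 after three weeks.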

Compound | Herbicidal effect on B: Japanese bulrush (grade 0-5)
Cc1nn(C)c(=O)c(-c2c(-c3ccc(OC(F)F)cc3)sc3ccc(F)cc23)c1OC(=O)OCCCl [2-293] | 5 (Herbicidal rate of 90% or more (almost completely withered))
Cc1nn(C)c(=O)c(-c2c(-c3ccc(OC(F)F)cc3)sc3ccc(F)cc23)c1OCC(=O)c1ccccc1 [2-305] | 5 (Herbicidal rate of 90% or more (almost completely withered))

Test system: redroot pigweed
Assay: Test Example 4: herbicidal effect by soil treatment (Table 19, symbol N)
Type: in vivo, redroot pigweed (Amaranthus retroflexus)
Settings: amount of applied herbicide 320 g/ha
Procedure, shortened: (§3)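 Three weeks of greenhouse growth at 25° C. to 30° C. followed a uniform surface spray of water-diluted emulsion at a predetermined herbicide amount. Seeds had been sown beforehand under about 1.5 cm of sterilized diluvial soil. Grading followed criteria set out in an earlier test.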

Compound | herbicidal effect on N: redroot pigweed
Cc1nn(C)c(=O)c(-c2c(-c3ccc(OC(F)F)cc3)sc3ccc(F)cc23)c1OC(=O)OCCCl [2-293] | 5 (Herbicidal rate of 90% or more (almost completely withered))
Cc1nn(C)c(=O)c(-c2c(-c3ccc(OC(F)F)cc3)sc3ccc(F)cc23)c1OCC(=O)c1ccccc1 [2-305] | 4 (Herbicidal rate of 70% or more and less than 90%)

Test system: barnyard grass
Assay: Test Example 5: herbicidal effect by foliage application, plastic box (Table 20, symbol H)
Type: in vivo, barnyard grass (Echinochloa crus-galli)
Settings: foliage application, AAH 320 g/ha, evaluated three weeks after application
Procedure, shortened: as §1

Compound | H: barnyard grass, herbicidal effect (criteria 0-5)
Cc1nn(C)c(=O)c(-c2c(-c3ccc(OC(F)F)cc3)sc3ccc(F)cc23)c1OC(=O)OCCCl [2-293] | 5 (Herbicidal rate of 90% or more (almost completely withered))
Cc1nn(C)c(=O)c(-c2c(-c3ccc(OC(F)F)cc3)sc3ccc(F)cc23)c1OCC(=O)c1ccccc1 [2-305] | 5 (Herbicidal rate of 90% or more (almost completely withered))

Test system: rice flat sedge
Assay: Test Example 3: herbicidal effect by foliage application, Wagner pot (Table 18, symbol E)
Type: in vivo, rice flat sedge (Cyperus iria)
Settings: amount of applied herbicide 320 g/ha
Procedure, shortened: (§4)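 Plants were sown in alluvial soil held under 0.1–0.5 cm standing water and grown 14 days in a greenhouse at 25–30 °C. An emulsifiable formulation, water-diluted to the set dose, was then sprayed onto the foliage, and effects were scored three weeks later using previously defined criteria.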

Compound | herbicidal effect on E: rice flat sedge
Cc1nn(C)c(=O)c(-c2c(-c3ccc(OC(F)F)cc3)sc3ccc(F)cc23)c1OC(=O)OCCCl [2-293] | 5 (Herbicidal rate of 90% or more (almost completely withered))
Cc1nn(C)c(=O)c(-c2c(-c3ccc(OC(F)F)cc3)sc3ccc(F)cc23)c1OCC(=O)c1ccccc1 [2-305] | 3 (Herbicidal rate of 40% or more and less than 70%)

Test system: wild oat
Assay: Test Example 5: herbicidal effect by foliage application, plastic box (Table 20, symbol I)
Type: in vivo, wild oat (Avena fatua)
Settings: foliage application, AAH 320 g/ha, evaluated three weeks after application
Procedure, shortened: as §1

Compound | I: wild oat, herbicidal effect (criteria 0-5)
Cc1nn(C)c(=O)c(-c2c(-c3ccc(OC(F)F)cc3)sc3ccc(F)cc23)c1OC(=O)OCCCl [2-293] | 3 (Herbicidal rate of 40% or more and less than 70%)
Cc1nn(C)c(=O)c(-c2c(-c3ccc(OC(F)F)cc3)sc3ccc(F)cc23)c1OCC(=O)c1ccccc1 [2-305] | 1 (Herbicidal rate of 5% or more and less than 20%)

Test system: Chinese sprangletop
Assay: Test Example 3: herbicidal effect by foliage application, Wagner pot (Table 18, symbol D)
Type: in vivo, chinese sprangletop (Leptochloa chinensis)
Settings: amount of applied herbicide 320 g/ha
Procedure, shortened: as §4

Compound | herbicidal effect on D: Chinese sprangletop
Cc1nn(C)c(=O)c(-c2c(-c3ccc(OC(F)F)cc3)sc3ccc(F)cc23)c1OC(=O)OCCCl [2-293] | 3 (Herbicidal rate of 40% or more and less than 70%)
Cc1nn(C)c(=O)c(-c2c(-c3ccc(OC(F)F)cc3)sc3ccc(F)cc23)c1OCC(=O)c1ccccc1 [2-305] | 5 (Herbicidal rate of 90% or more (almost completely withered))

Test system: windgrass
Assay: Test Example 4: herbicidal effect by soil treatment (Table 19, symbol L)
Type: in vivo, windgrass (Apera spica-venti)
Settings: amount of applied herbicide 320 g/ha
Procedure, shortened: as §3

Compound | herbicidal effect on L: windgrass
Cc1nn(C)c(=O)c(-c2c(-c3ccc(OC(F)F)cc3)sc3ccc(F)cc23)c1OC(=O)OCCCl [2-293] | 4 (Herbicidal rate of 70% or more and less than 90%)
Cc1nn(C)c(=O)c(-c2c(-c3ccc(OC(F)F)cc3)sc3ccc(F)cc23)c1OCC(=O)c1ccccc1 [2-305] | 0 (Herbicidal rate of 5% or less (almost no effect))

Test system: barnyard grass
Assay: Test Example 3: herbicidal effect by foliage application, Wagner pot (Table 18, symbol H)
Type: in vivo, barnyard grass (Echinochloa crus-galli)
Settings: amount of applied herbicide 320 g/ha
Procedure, shortened: as §4

Compound | herbicidal effect on H: barnyard grass
Cc1nn(C)c(=O)c(-c2c(-c3ccc(OC(F)F)cc3)sc3ccc(F)cc23)c1OC(=O)OCCCl [2-293] | 5 (Herbicidal rate of 90% or more (almost completely withered))
Cc1nn(C)c(=O)c(-c2c(-c3ccc(OC(F)F)cc3)sc3ccc(F)cc23)c1OCC(=O)c1ccccc1 [2-305] | 5 (Herbicidal rate of 90% or more (almost completely withered))

Test system: late watergrass
Assay: Test Example 1: herbicidal activity, application before weed generation under submerged conditions (Table 16, symbol A)
Type: in vivo, late watergrass (Echinochloa oryzicola)
Settings: 320 g/ha applied herbicide
Procedure, shortened: as §2

Compound | Herbicidal effect on A: late watergrass (grade 0-5)
Cc1nn(C)c(=O)c(-c2c(-c3ccc(OC(F)F)cc3)sc3ccc(F)cc23)c1OC(=O)OCCCl [2-293] | 5 (Herbicidal rate of 90% or more (almost completely withered))
Cc1nn(C)c(=O)c(-c2c(-c3ccc(OC(F)F)cc3)sc3ccc(F)cc23)c1OCC(=O)c1ccccc1 [2-305] | 3 (Herbicidal rate of 40% or more and less than 70%)

Test system: late watergrass
Assay: Test Example 2: herbicidal activity, application during weed generation under submerged conditions (Table 17, symbol A)
Type: in vivo, late watergrass (Echinochloa oryzicola)
Settings: AAH 320 g/ha; application during weed generation, submerged conditions
Procedure, shortened: (§5)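 In this pot test, flooded alluvial soil (water depth 4 cm) holds all three species sown as a mixture. Once seedlings have one to two leaves, the compound's emulsion, thinned with water to the intended dose, is poured on the water; grading follows after three weeks on the earlier criteria.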

Compound | herbicidal effect rating, A: late watergrass
Cc1nn(C)c(=O)c(-c2c(-c3ccc(OC(F)F)cc3)sc3ccc(F)cc23)c1OC(=O)OCCCl [2-293] | 4 (Herbicidal rate of 70% or more and less than 90%)
Cc1nn(C)c(=O)c(-c2c(-c3ccc(OC(F)F)cc3)sc3ccc(F)cc23)c1OCC(=O)c1ccccc1 [2-305] | 3 (Herbicidal rate of 40% or more and less than 70%)

Test system: Italian ryegrass
Assay: Test Example 4: herbicidal effect by soil treatment (Table 19, symbol K)
Type: in vivo, Italian ryegrass (Lolium multiflorum)
Settings: amount of applied herbicide 320 g/ha
Procedure, shortened: as §3

Compound | herbicidal effect on K: Italian ryegrass
Cc1nn(C)c(=O)c(-c2c(-c3ccc(OC(F)F)cc3)sc3ccc(F)cc23)c1OC(=O)OCCCl [2-293] | 5 (Herbicidal rate of 90% or more (almost completely withered))
Cc1nn(C)c(=O)c(-c2c(-c3ccc(OC(F)F)cc3)sc3ccc(F)cc23)c1OCC(=O)c1ccccc1 [2-305] | 0 (Herbicidal rate of 5% or less (almost no effect))

Test system: oval-leafed pondweed
Assay: Test Example 2: herbicidal activity, application during weed generation under submerged conditions (Table 17, symbol C)
Type: in vivo, oval-leafed pondweed (Monochoria vaginalis)
Settings: AAH 320 g/ha; application during weed generation, submerged conditions
Procedure, shortened: as §5

Compound | herbicidal effect rating, C: oval-leafed pondweed
Cc1nn(C)c(=O)c(-c2c(-c3ccc(OC(F)F)cc3)sc3ccc(F)cc23)c1OC(=O)OCCCl [2-293] | 4 (Herbicidal rate of 70% or more and less than 90%)
Cc1nn(C)c(=O)c(-c2c(-c3ccc(OC(F)F)cc3)sc3ccc(F)cc23)c1OCC(=O)c1ccccc1 [2-305] | 0 (Herbicidal rate of 5% or less (almost no effect))

Test system: persian speedwell
Assay: Test Example 5: herbicidal effect by foliage application, plastic box (Table 20, symbol R)
Type: in vivo, Persian speedwell (Veronica persica)
Settings: foliage application, AAH 320 g/ha, evaluated three weeks after application
Procedure, shortened: as §1

Compound | R: persian speedwell, herbicidal effect (criteria 0-5)
Cc1nn(C)c(=O)c(-c2c(-c3ccc(OC(F)F)cc3)sc3ccc(F)cc23)c1OC(=O)OCCCl [2-293] | 5 (Herbicidal rate of 90% or more (almost completely withered))
Cc1nn(C)c(=O)c(-c2c(-c3ccc(OC(F)F)cc3)sc3ccc(F)cc23)c1OCC(=O)c1ccccc1 [2-305] | 5 (Herbicidal rate of 90% or more (almost completely withered))

Test system: southern crabgrass
Assay: Test Example 5: herbicidal effect by foliage application, plastic box (Table 20, symbol F)
Type: in vivo, southern crabgrass (Digitaria ciliaris)
Settings: foliage application, AAH 320 g/ha, evaluated three weeks after application
Procedure, shortened: as §1

Compound | F: southern crabgrass, herbicidal effect (criteria 0-5)
Cc1nn(C)c(=O)c(-c2c(-c3ccc(OC(F)F)cc3)sc3ccc(F)cc23)c1OC(=O)OCCCl [2-293] | 5 (Herbicidal rate of 90% or more (almost completely withered))
Cc1nn(C)c(=O)c(-c2c(-c3ccc(OC(F)F)cc3)sc3ccc(F)cc23)c1OCC(=O)c1ccccc1 [2-305] | 1 (Herbicidal rate of 5% or more and less than 20%)

Test system: green foxtail
Assay: Test Example 5: herbicidal effect by foliage application, plastic box (Table 20, symbol G)
Type: in vivo, green foxtail (Setaria viridis)
Settings: foliage application, AAH 320 g/ha, evaluated three weeks after application
Procedure, shortened: as §1

Compound | G: green foxtail, herbicidal effect (criteria 0-5)
Cc1nn(C)c(=O)c(-c2c(-c3ccc(OC(F)F)cc3)sc3ccc(F)cc23)c1OC(=O)OCCCl [2-293] | 5 (Herbicidal rate of 90% or more (almost completely withered))
Cc1nn(C)c(=O)c(-c2c(-c3ccc(OC(F)F)cc3)sc3ccc(F)cc23)c1OCC(=O)c1ccccc1 [2-305] | 5 (Herbicidal rate of 90% or more (almost completely withered))

From US20230085307A1, “PYRIDAZINONE COMPOUND AND HERBICIDE” (NISSAN CHEMICAL CORPORATION, priority 2019, published 2023)
